Measured values: patent publication US12077503B2, “Substituted cyclic amides and their use as herbicides” (FMC CORPORATION, priority 2015, dated 2024)

Key:
Format in all cases: in vivo
[1] = test system: barnyardgrass (Echinochloa crus-galli); assay: Test G Pre-Emergence Protocol; conditions: Echinochloa crus-galli, pre-emergence, 312 h, evaluated after 13 days; for pest or weed control at 15.625 g/ha: 15.625 g ai/ha; for pest or weed control at 15.625 g/ha / pest or weed control at 250 g/ha: read-out: Barnyardgrass damage rating (100=total damage to plant; 0=no damage to plant); for pest or weed control at 62.5 g/ha: 62.5 g ai/ha, 100=total damage to plant, 0=no damage to plant, read-out: Barnyardgrass damage rating; for pest or weed control at 250 g/ha: 250 g ai/ha
How it was run: (§1)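 One day after sowing, pots are treated with a spray of test compound formulated in acetone/water 50:50 plus 0.5% Tween 20, giving 15.625, 62.5 or 250 g/ha. Evaluation on a 0–100 damage scale follows 13 days of glasshouse growth.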

[2] = test system: ivy-leaved morning glory (Ipomoea hederacea); assay: Test G Pre-Emergence Protocol; conditions: Ipomoea, pre-emergence, 312 h, evaluated after 13 days; for pest or weed control at 15.625 g/ha: 15.625 g ai/ha; for pest or weed control at 15.625 g/ha / pest or weed control at 250 g/ha: read-out: Morningglory, Ivy-leaved damage rating (100=total damage to plant; 0=no damage to plant); for pest or weed control at 62.5 g/ha: 62.5 g ai/ha, 100=total damage to plant, 0=no damage to plant, read-out: Morningglory, Ivy-leaved damage rating; for pest or weed control at 250 g/ha: 250 g ai/ha
How it was run: as §1

[3] = test system: redroot pigweed (Amaranthus retroflexus); assay: Test G Pre-Emergence Protocol; conditions: Amaranthus retroflexus, pre-emergence, 312 h, evaluated after 13 days; for pest or weed control at 15.625 g/ha: 15.625 g ai/ha; for pest or weed control at 15.625 g/ha / pest or weed control at 250 g/ha: read-out: Pigweed, Redroot damage rating (100=total damage to plant; 0=no damage to plant); for pest or weed control at 62.5 g/ha: 62.5 g ai/ha, 100=total damage to plant, 0=no damage to plant, read-out: Pigweed, Redroot damage rating; for pest or weed control at 250 g/ha: 250 g ai/ha
How it was run: as §1

corn (Zea mays) [4] = assay: Test G Pre-Emergence Protocol; conditions: Zea mays, pre-emergence, 312 h, evaluated after 13 days; for plant injury at 15.625 g/ha: 15.625 g ai/ha; for plant injury at 15.625 g/ha / plant injury at 250 g/ha: read-out: Corn damage rating (100=total damage to plant; 0=no damage to plant); for plant injury at 62.5 g/ha: 62.5 g ai/ha, 100=total damage to plant, 0=no damage to plant, read-out: Corn damage rating; for plant injury at 250 g/ha: 250 g ai/ha
How it was run: as §1

[5] = test system: velvetleaf (Abutilon theophrasti); assay: Test G Pre-Emergence Protocol; conditions: Abutilon theophrasti, pre-emergence, 312 h, evaluated after 13 days; for pest or weed control at 15.625 g/ha: 15.625 g ai/ha; for pest or weed control at 15.625 g/ha / pest or weed control at 250 g/ha: read-out: Velvetleaf damage rating (100=total damage to plant; 0=no damage to plant); for pest or weed control at 62.5 g/ha: 62.5 g ai/ha, 100=total damage to plant, 0=no damage to plant, read-out: Velvetleaf damage rating; for pest or weed control at 250 g/ha: 250 g ai/ha
How it was run: as §1

[6] = test system: giant foxtail (Setaria faberi); assay: Test G Pre-Emergence Protocol; conditions: Setaria faberi, pre-emergence, 312 h, evaluated after 13 days; for pest or weed control at 15.625 g/ha: 15.625 g ai/ha; for pest or weed control at 15.625 g/ha / pest or weed control at 250 g/ha: read-out: Foxtail, Giant damage rating (100=total damage to plant; 0=no damage to plant); for pest or weed control at 62.5 g/ha: 62.5 g ai/ha, 100=total damage to plant, 0=no damage to plant, read-out: Foxtail, Giant damage rating; for pest or weed control at 250 g/ha: 250 g ai/ha
How it was run: as §1

[7] = test system: barnyardgrass (Echinochloa crus-galli); assay: Test G Post-Emergence Protocol; conditions: Echinochloa crus-galli, post-emergence, 312 h, read-out: Barnyardgrass damage rating; for pest or weed control at 15.625 g/ha: 15.625 g ai/ha, evaluated after 13 days (100=total damage to plant; 0=no damage to plant); for pest or weed control at 62.5 g/ha: 62.5 g ai/ha; for pest or weed control at 62.5 g/ha / pest or weed control at 250 g/ha: evaluated after 13 days, 100=total damage to plant, 0=no damage to plant; for pest or weed control at 250 g/ha: 250 g ai/ha
How it was run: (§2)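 Foliar application was made 8 days after sowing, using an aqueous spray of the active in acetone/water (50:50) with 0.5% Tween 20, at doses of 15.625, 62.5 or 250 g/ha. Injury was assessed 13 days later, where 100 meant the plant was fully damaged.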

[8] = test system: ivy-leaved morning glory (Ipomoea hederacea); assay: Test G Post-Emergence Protocol; conditions: Ipomoea, post-emergence, 312 h, read-out: Morningglory, Ivy-leaved damage rating; for pest or weed control at 15.625 g/ha: 15.625 g ai/ha, evaluated after 13 days (100=total damage to plant; 0=no damage to plant); for pest or weed control at 62.5 g/ha: 62.5 g ai/ha; for pest or weed control at 62.5 g/ha / pest or weed control at 250 g/ha: evaluated after 13 days, 100=total damage to plant, 0=no damage to plant; for pest or weed control at 250 g/ha: 250 g ai/ha
How it was run: as §2

[9] = test system: redroot pigweed (Amaranthus retroflexus); assay: Test G Post-Emergence Protocol; conditions: Amaranthus retroflexus, post-emergence, 312 h, read-out: Pigweed, Redroot damage rating; for pest or weed control at 15.625 g/ha: 15.625 g ai/ha, evaluated after 13 days (100=total damage to plant; 0=no damage to plant); for pest or weed control at 62.5 g/ha: 62.5 g ai/ha; for pest or weed control at 62.5 g/ha / pest or weed control at 250 g/ha: evaluated after 13 days, 100=total damage to plant, 0=no damage to plant; for pest or weed control at 250 g/ha: 250 g ai/ha
How it was run: as §2

corn (Zea mays) [10] = assay: Test G Post-Emergence Protocol; conditions: Zea mays, post-emergence, 312 h, read-out: Corn damage rating; for plant injury at 15.625 g/ha: 15.625 g ai/ha, evaluated after 13 days (100=total damage to plant; 0=no damage to plant); for plant injury at 62.5 g/ha: 62.5 g ai/ha; for plant injury at 62.5 g/ha / plant injury at 250 g/ha: evaluated after 13 days, 100=total damage to plant, 0=no damage to plant; for plant injury at 250 g/ha: 250 g ai/ha
How it was run: as §2

[11] = test system: velvetleaf (Abutilon theophrasti); assay: Test G Post-Emergence Protocol; conditions: Abutilon theophrasti, post-emergence, 312 h, read-out: Velvetleaf damage rating; for pest or weed control at 15.625 g/ha: 15.625 g ai/ha, evaluated after 13 days (100=total damage to plant; 0=no damage to plant); for pest or weed control at 62.5 g/ha: 62.5 g ai/ha; for pest or weed control at 62.5 g/ha / pest or weed control at 250 g/ha: evaluated after 13 days, 100=total damage to plant, 0=no damage to plant; for pest or weed control at 250 g/ha: 250 g ai/ha
How it was run: as §2

[12] = test system: giant foxtail (Setaria faberi); assay: Test G Post-Emergence Protocol; conditions: Setaria faberi, post-emergence, 312 h, read-out: Foxtail, Giant damage rating; for pest or weed control at 15.625 g/ha: 15.625 g ai/ha, evaluated after 13 days (100=total damage to plant; 0=no damage to plant); for pest or weed control at 62.5 g/ha: 62.5 g ai/ha; for pest or weed control at 62.5 g/ha / pest or weed control at 250 g/ha: evaluated after 13 days, 100=total damage to plant, 0=no damage to plant; for pest or weed control at 250 g/ha: 250 g ai/ha
How it was run: as §2

SMILES	pest or weed control at 15.625 g/ha [1]	pest or weed control at 62.5 g/ha [1]	pest or weed control at 250 g/ha [1]	pest or weed control at 15.625 g/ha [2]	pest or weed control at 62.5 g/ha [2]	pest or weed control at 250 g/ha [2]	pest or weed control at 15.625 g/ha [3]	pest or weed control at 62.5 g/ha [3]	pest or weed control at 250 g/ha [3]	plant injury at 15.625 g/ha (corn (Zea mays) [4])	plant injury at 62.5 g/ha (corn (Zea mays) [4])	plant injury at 250 g/ha (corn (Zea mays) [4])	pest or weed control at 15.625 g/ha [5]	pest or weed control at 62.5 g/ha [5]	pest or weed control at 250 g/ha [5]	pest or weed control at 15.625 g/ha [6]	pest or weed control at 62.5 g/ha [6]	pest or weed control at 250 g/ha [6]	pest or weed control at 15.625 g/ha [7]	pest or weed control at 62.5 g/ha [7]	further results
CN1C[C@H](c2ccc(Cl)cc2)[C@@H](C(=O)Nc2cnccc2C(F)(F)F)C1=O [Compound 1812]	0%	0%	70%	0%	0%	40%	0%	20%	70%	0%	0%	40%	0%	40%	80%	90%	90%	90%	0%	0%	pest or weed control at 250 g/ha [7]: 70%; pest or weed control at 15.625 g/ha [8]: 0%; pest or weed control at 62.5 g/ha [8]: 50%; pest or weed control at 250 g/ha [8]: 70%; pest or weed control at 15.625 g/ha [9]: 0%; pest or weed control at 62.5 g/ha [9]: 20%; pest or weed control at 250 g/ha [9]: 50%; plant injury at 15.625 g/ha (corn (Zea mays) [10]): 0%; plant injury at 62.5 g/ha (corn (Zea mays) [10]): 0%; plant injury at 250 g/ha (corn (Zea mays) [10]): 50%; pest or weed control at 15.625 g/ha [11]: 0%; pest or weed control at 62.5 g/ha [11]: 10%; pest or weed control at 250 g/ha [11]: 60%; pest or weed control at 15.625 g/ha [12]: 0%; pest or weed control at 62.5 g/ha [12]: 80%; pest or weed control at 250 g/ha [12]: 80%
C=Cc1cccc([C@@H]2CN(C)C(=O)[C@H]2C(=O)Nc2cccc(F)c2F)c1 (racemic) [Compound 1762]	70%	80%	80%	0%	10%	10%	0%	10%	20%	0%	30%	80%	0%	0%	10%	70%	80%	80%	10%	50%	pest or weed control at 250 g/ha [7]: 80%; pest or weed control at 15.625 g/ha [8]: 30%; pest or weed control at 62.5 g/ha [8]: 60%; pest or weed control at 250 g/ha [8]: 70%; pest or weed control at 15.625 g/ha [9]: 20%; pest or weed control at 62.5 g/ha [9]: 0%; pest or weed control at 250 g/ha [9]: 10%; plant injury at 15.625 g/ha (corn (Zea mays) [10]): 20%; plant injury at 62.5 g/ha (corn (Zea mays) [10]): 30%; plant injury at 250 g/ha (corn (Zea mays) [10]): 80%; pest or weed control at 15.625 g/ha [11]: 10%; pest or weed control at 62.5 g/ha [11]: 0%; pest or weed control at 250 g/ha [11]: 70%; pest or weed control at 15.625 g/ha [12]: 60%; pest or weed control at 62.5 g/ha [12]: 70%; pest or weed control at 250 g/ha [12]: 80%
